The values that follow are results of earlier work, collected in EP0127274A2, “Esters of metronidazole and compositions containing them” (THE UPJOHN COMPANY, priority 1983, dated 1984).

The conditions of the series: background statement.

For `Cc1ncc([N+](=O)[O-])n1CCO` [metronidazole, 1-(O-hydroxyethyl)-2-methyl-5-nitroimidazole], the solubility in water result was “approximately 10 mg/ml”.
